Test results from ChEMBL document CHEMBL2331167, “Inhibitory effect of novel somatostatin peptide analogues on human cancer cell growth based on the selective inhibition of DNA polymerase β” (Bioorg Med Chem, 2013).
The source made the active and inactive calls. The rule behind the calls is not given here.

Columns and labels:
HCT-116 [1] = experiment: Cytotoxicity against p53 -/- human HCT116 cells assessed as growth inhibition at 200 uM incubated for 24 hrs by WST-1 assay; type: functional, cell-based
HCT-116 [2] = experiment: Cytotoxicity against p53 +/+ human HCT116 cells assessed as growth inhibition at 200 uM incubated for 24 hrs by WST-1 assay; type: functional, cell-based
HCT-116 [3] = experiment: Cytotoxicity against p53 +/+ human HCT116 cells assessed as growth inhibition incubated for 24 hrs by WST-1 assay; type: functional; settings: HCT-116, 24 h, read-out: LD50 (the source's name)

Structure (SMILES) | growth inhibition (GI) (HCT-116 [1]) | growth inhibition (GI) (HCT-116 [2]) | CC50 (HCT-116 [3])
CC(C)C[C@H](NC(=O)[C@H](Cc1ccc(O)cc1)NC(=O)OC(C)(C)C)C(=O)Nc1cccc2ccccc12 | Active | Active | 
CC(C)[C@H](NC(=O)[C@H](Cc1ccc(O)cc1)NC(=O)OC(C)(C)C)C(=O)Nc1cccc2ccccc12 | Active | Active | 
CC(C)(C)OC(=O)N[C@@H](Cc1ccc(O)cc1)C(=O)N[C@@H](CC(=O)O)C(=O)Nc1cccc2ccccc12 | inactive | inactive | 
CC(C)(C)OC(=O)NCCC(=O)Nc1cccc2ccccc12 | inactive | inactive | 
CC(C)(C)OC(=O)NCCCCCCC(=O)Nc1cccc2ccccc12 | inactive | inactive | 
CC(C)(C)OC(=O)N[C@@H](Cc1ccc(O)cc1)C(=O)N[C@@H](Cc1ccccc1)C(=O)Nc1cccc2ccccc12 | Active | Active | 30.7 µM
CC(C)(C)OC(=O)NCCCCC(=O)Nc1cccc2ccccc12 | inactive | inactive | 
CC(C)(C)OC(=O)N[C@@H](Cc1ccc(O)cc1)C(=O)N[C@@H](CCC(=O)O)C(=O)Nc1cccc2ccccc12 | inactive | inactive | 
